According to PMC5154195, “Ester-Modified Cyclometalated Iridium(III) Complexes as Mitochondria-Targeting Anticancer Agents” (Scientific Reports, 2016):

Columns and labels:
[1] = Lipophilicity (log Po/w), shake-flask method with ICP-MS; format: physicochemical; conditions: n-octanol/PBS
Description: According to the Lipinski’s rule, appropriate hydrophilicity and lipophilicity are of vital importance for drugs. Excessive hydrophilicity decreases penetration ability of a drug to cross phospholipid layer membrane. On the contrary, high lipophilicity means poor water solubility, which hinders biomedical applications. The lipophilicity, as represented by the log Po/w values, was determined by the shake-flask method according to a literature procedure. The log Po/w values of these Ir(III) complexes fall between −0.81 and 2.59 (Fig. 3A).
The lipophilicity (log Po/w) was determined by the flask-shaking method and analyzed by ICP-MS. Equal amounts of PBS and n-octanol were shaken in the oscillator for 24 h. The mixture was separated to obtain oil and water phases. The mixtures were centrifuged at 3000 × g for 5 min. Equal volumes of n-octanol and PBS were added to the supernatant. The mixtures were shaken for another 24 h, and then centrifuged at 3000 × g for 5 min. The oil and water phases were separated carefully and dried under vacuum. The dried sample was dissolved by HNO3 (65%, 300 μL) and diluted to a final volume of 10 mL with Milli-Q water containing 10 ppb In. The Ir(III) concentration (Co or Cw) was measured by ICP-MS using In as the internal reference. The Po/w value corresponds to Co/Cw.

[2] = test system: A549 (human lung adenocarcinoma epithelial) cells; assay: MTT cell viability assay, A549; format: cell-based; conditions: 44 h + 4 h MTT, read-out: IC50 (50% inhibition of cell viability)
Description: (§1) HeLa, A549, A549R, MCF-7 and HepG2 cells were obtained from Experimental Animal Centre of Sun Yat-Sen University (Guangzhou, China). Cells were cultured in DMEM (Dulbecco’s modified Eagle’s medium, Gibco BRL) or RPMI 1640 (Roswell Park Memorial Institute 1640, Gibco BRL) medium, containing 10% FBS (fetal bovine serum, Gibco BRL), 100 μg/mL streptomycin and 100 U/mL penicillin (Gibco BRL).
(§2) The cytotoxicity of the tested complexes towards different cell lines was determined by MTT assay. Cells were cultured in 96-well plates for 24 h. Cells were incubated with a series of concentrations of complexes for another 44 h. 20 μL MTT solution (5 mg/mL) was added into each well and incubated for another 4 h. Then culture media was removed and 150 μL DMSO was added into each well. The plate was shaken for 10 min. The absorbance at 595 nm was measured by a microplate reader.

[3] = test system: HeLa (human cervical cancer) cells; assay: MTT cell viability assay, HeLa; format: cell-based; conditions: 44 h + 4 h MTT, read-out: IC50 (50% inhibition of cell viability)
Description: as §1, §2

[4] = test system: HepG2 (human hepatocellular liver carcinoma) cells; assay: MTT cell viability assay, HepG2; format: cell-based; conditions: 44 h + 4 h MTT, read-out: IC50 (50% inhibition of cell viability)
Description: as §1, §2

[5] = test system: all the cell lines tested (A549, A549R, HeLa, HepG2, MCF-7); assay: Cytotoxicity across the cell line panel (MTT); format: cell-based, human
Description: The cytotoxicity was evaluated in A549, A549R (cisplatin-resistant A549), HeLa (human cervical cancer), HepG2 (human hepatocellular liver carcinoma) and MCF-7 (human breast adenocarcinoma) cells. Cisplatin was also tested as a positive control. Generally, the anti-proliferative efficacy of Ir(III) complexes is in the following order: 4a ≈ 4b > 5a ≈ 5b > 3b > 3a > 2b > 2a > 1a ≈ 1b, which corresponds to their lipophilicity and cellular uptake efficacy (Table 1). […] Complexes with longer ester substitutions (4a, 5a, 4b and 5b) show much higher cytotoxicity than the other complexes. […] For complexes 1a and 1b, converting the carboxyl acid groups into ester groups can facilitate cellular uptake and improve their anti-proliferative effects. As carboxyl groups are usually deprotonated at physiological pH, the phenomena may be partially attributed to the alteration of molecular charge from neutral/negative to positive under physiological conditions.
as §2, with “The plate was shaken for 10 min.” left out

[6] = test system: A549R (cisplatin-resistant A549) cells; assay: MTT cell viability assay, A549R; format: cell-based, human; conditions: 44 h + 4 h MTT, read-out: IC50 (50% inhibition of cell viability)
Description: as §1, §2

[7] = test system: porcine liver esterase (PLE); assay: Hydrolysis by PLE in vitro (ESI-MS); format: in vitro ADME; conditions: 20 μM, 0.6 units PLE, Tris-HCl 10 mM pH 7.4, 2 h
Description: Ester-modified compounds have been used as prodrugs widely. They can be hydrolysed by a variety of esterases selectively or non-selectively, to release active pharmacophores. Herein, porcine liver esterase (PLE) was used as a model to investigate the hydrolytic process of the ester bonds in Ir(III) complexes. The hydrolysis of ten Ir(III) complexes by PLE were detected by ESI-MS (Supplementary Fig. S14)[28]. Equal amounts of Ir(III) complexes (20 μM, 100 μL) were incubated with PLE (0.6 units) in Tris-HCl solution (10 mM, pH 7.4) for 2 h. […] Other complexes with ester substituents show peaks assigned to intact complexes as well as peaks corresponding to hydrolytic products.
Ir(III) complexes (20 μM) were dissolved in freshly prepared Tris-HCl (10 mM, pH 7.4) buffer. Each sample contained 100 μL Ir(III) solution and 0.6 units PLE. After the samples were incubated at 298 K for 2 h, 400 μL acetone (253 K) was added into each sample to quench the enzymatic hydrolysis. Then the samples were centrifuged at 15000 × g for 10 min. The supernatant was collected and analyzed by ESI-MS.

[8] = test system: A549 cells; assay: Cellular uptake efficacy by ICP-MS; format: cell-based, human; conditions: 20 μM, 1 h
Description: It has been reported that cellular uptake efficacy of a compound is affected by many factors, such as lipophilicity, polarization and surface area[32]. As iridium is an exogenous element, its cellular uptake level can be quantitatively recorded by ICP-MS (inductively coupled plasma-mass spectrometry)[15]. A549 (human lung adenocarcinoma epithelial) cells were incubated with Ir(III) complexes (20 μM) for 1 h and analysed. Cell penetration capability of these complexes is correlated with the length of ester group and lipophilicity (Fig. 3B).
A549 cells were cultured in 60 mm dishes and incubated for 24 h. The medium was removed and replaced with medium-DMSO (99:1, v/v) containing Ir(III) complexes (20 μM). After 1 h incubation, cells were trypsined and collected in PBS. After counted by hemocytometer, cells were digested with HNO3 (65%, 300 μL) at room temperature for 24 h. The solution was diluted to a final volume of 10 mL with Milli-Q water containing 10 ppb In. The iridium content was measured by ICP-MS using In as the internal reference.

[9] = test system: MCF-7 (human breast adenocarcinoma) cells; assay: MTT cell viability assay, MCF-7; format: cell-based; conditions: MCF-7, MTT, 44 h + 4 h MTT; read-out: IC50 (50% inhibition of cell viability)
Description: as §1, §2

[10] = test system: A549 cells; assay: Inhibition of autophagy by 3-MA, MTT cell viability; format: cell-based, human; conditions: A549, 3-MA pre-treatment 1 h, 24 h
Description: Autophagy is a complicated biological process, which can play either pro-survival or pro-death roles in anticancer therapy. 3-methyladenine (3-MA), a specific class III PI3K inhibitor that can block autophagosome formation, was used to investigate the relationship between autophagy and anti-proliferative activities of 4a and 4b[51]. The anti-proliferative effects are diminished by pre-treatment of A549 cells with 3-MA (5 mM) for 1 h (Fig. 8F). Cell viabilities increase by approximately 1.09−fold and 1.13−fold for 4a (2 μM, 24 h) and 4b (2 μM, 24 h), respectively.
Cells were cultured in a 96-well plate and grown to confluence. Cells were pre-treated with or without 3-MA (5 mM) for 1 h, then incubated with the complexes at the indicated concentrations for 24 h. Cell viability was measured by MTT assay.

Structure (SMILES)	Lipophilicity (log Po/w) [1]	IC50 [2] [µM]	IC50 [3] [µM]	IC50 [4] [µM]	cytotoxicity against all the cell lines tested [5]	IC50 [6] [µM]	hydrolysis of ester bonds by PLE (ESI-MS peaks) [7]	cellular uptake level / penetration ability [8]	IC50 [9] [µM]	effect of 3-MA pre-treatment on induced cell death [10]
O=C([O-])c1cc[n+]2c(c1)-c1cc(C(=O)O)cc[n+]1[Ir-3]213([c]2ccccc2-c2cccc[n+]21)[c]1ccccc1-c1cccc[n+]13 [Complex 1a, Ir(ppy)2(Hdcbpy)]	-0.81	> 100	> 100	> 100	inactive	> 100	remain unchanged	lowest penetration ability	> 100	
O=C([O-])c1cc[n+]2c(c1)-c1cc(C(=O)O)cc[n+]1[Ir-3]213([c]2cc(F)cc(F)c2-c2cccc[n+]21)[c]1cc(F)cc(F)c1-c1cccc[n+]13 [Complex 1b, Ir(dfppy)2(Hdcbpy)]	-0.49	> 100	> 100	> 100	inactive	> 100	remain unchanged	lowest penetration ability	> 100	
N.N.[Cl][Pt][Cl] [cisplatin, reference compound]		23.7 ± 1	25.1 ± 2.2	15.8 ± 1.2		79.4 ± 6.1			16.8 ± 1.5	enhance cell death
